Assay: Pharmacokinetic study in rats after oral administration of SYD extract and its single and combined TCM extracts (UPLC-MS/MS of plasma)
Conditions: male, Sprague-Dawley, rat, plasma, po, n = 6; for AUC(0-t) / AUC(0-inf) / Cmax / MRT last / MRT inf / Tmax: rat plasma; for MRT last: MRT(0–t); for MRT inf: MRT(0–∞); for half-life: t1/2, rat plasma
[1] = 1.29 g/kg, oral AS extract 1.29 g/kg
[2] = 2.14 g·kg^−1 (extract), oral LJ + GU extract
[3] = 2.15 g/kg, oral LJ extract 2.15 g/kg
[4] = 2.43 g/kg, oral AS + GU extract 2.43 g/kg
[5] = 3.29 g·kg^−1 (extract), oral LJ + AS extract
[6] = 3.29 g·kg^−1 extract, oral LJ + AS extract
[7] = 4.5 g·kg^−1 (extract), oral LJ + SN extract
[8] = 4.5 g·kg^−1 extract, oral LJ + SN extract
[9] = 4.73 g/kg, oral LJ + SN + GU extract 4.73 g/kg
[10] = 5.43 g/kg, oral LJ + SN + AS extract 5.43 g/kg
[11] = 8.25 g/kg, oral SYD extract 8.25 g/kg

O=C(/C=C/c1ccc(O)c(O)c1)O[C@@H]1C[C@](O)(C(=O)O)C[C@@H](O)[C@H]1O [Chlorogenic acid, chlorogenic acid]
AUC(0-t) [1]: 1360 ± 120 ng·h/mL | AUC(0-inf) [1]: 2130 ± 670 ng·h/mL | Cmax [1]: 390 ± 110 ng/mL | MRT last [1]: 1.56 ± 0.67 h | MRT inf [1]: 4.28 ± 2.23 h | Tmax [1]: 0.89 ± 0.33 h | half-life [1]: 3.54 ± 0.98 h | AUC(0-inf) [2]: 2930 ± 1000 ng·h/mL | Cmax [2]: 1070 ± 190 ng/mL | MRT last [2]: 3.85 ± 0.88 h | MRT inf [2]: 65 ± 64.6 h | Tmax [2]: 1.18 ± 0.78 h | half-life [2]: 8.15 ± 2.49 h | AUC(0-t) (2.14 g·kg^−1 extract, oral LJ + GU extract): 1780 ± 290 ng·h/mL | AUC(0-t) [3]: 3940 ± 2120 ng·h/mL | AUC(0-inf) [3]: 5040 ± 2980 ng·h/mL | Cmax [3]: 2410 ± 830 ng/mL | MRT last [3]: 3.12 ± 0.75 h | MRT inf [3]: 24.7 ± 8.81 h | Tmax [3]: 1.11 ± 0.74 h | half-life [3]: 9.39 ± 2.87 h | AUC(0-t) [4]: 1150 ± 340 ng·h/mL | AUC(0-inf) [4]: 1980 ± 450 ng·h/mL | Cmax [4]: 290 ± 210 ng/mL | MRT last [4]: 1.78 ± 0.39 h | MRT inf [4]: 3.36 ± 2 h | Tmax [4]: 0.55 ± 0.48 h | half-life [4]: 2.78 ± 0.53 h | Cmax [5]: 1670 ± 480 ng/mL | MRT last [5]: 3.17 ± 0.75 h | MRT inf [5]: 37.6 ± 36.1 h | Tmax [5]: 1.36 ± 0.69 h | half-life [5]: 7.14 ± 1.59 h | AUC(0-t) [6]: 2820 ± 750 ng·h/mL | AUC(0-inf) [6]: 3770 ± 1220 ng·h/mL | MRT last [7]: 3.48 ± 0.86 h | MRT inf [7]: 46.8 ± 43.4 h | Tmax [7]: 1.36 ± 1.03 h | half-life [7]: 7.82 ± 2.6 h | AUC(0-t) [8]: 2800 ± 1160 ng·h/mL | AUC(0-inf) [8]: 4250 ± 2310 ng·h/mL | Cmax [8]: 1740 ± 750 ng/mL | AUC(0-t) [9]: 2190 ± 480 ng·h/mL | AUC(0-inf) [9]: 3410 ± 640 ng·h/mL | Cmax [9]: 1280 ± 510 ng/mL | MRT last [9]: 3.44 ± 0.29 h | MRT inf [9]: 69.3 ± 73.6 h | half-life [9]: 8.34 ± 1.07 h | AUC(0-t) [10]: 2550 ± 640 ng·h/mL | AUC(0-inf) [10]: 3690 ± 490 ng·h/mL | Cmax [10]: 1380 ± 370 ng/mL | MRT last [10]: 3.19 ± 0.32 h | MRT inf [10]: 59.5 ± 63.2 h | half-life [10]: 6.73 ± 1.7 h | AUC(0-t) [11]: 2540 ± 280 ng·h/mL | AUC(0-inf) [11]: 3650 ± 820 ng·h/mL | Cmax [11]: 1220 ± 80 ng/mL | MRT last [11]: 3.28 ± 0.5 h | MRT inf [11]: 52.6 ± 53.8 h | half-life [11]: 8.08 ± 1.67 h | half-life ([…], oral SN + AS + GU extract […]): 7.95 ± 2.46 h

Source: publication PMC6150365, “Simultaneous Determination of Seven Components in Rat Plasma by the UPLC-MS/MS Method and Application of Pharmacokinetic Studies to SimiaoYong’an Decoction” (Molecules : A Journal of Synthetic Chemistry and Natural …, 2017)
